Measurements as given in patent US12502362B2, “Inhibitors of nucleotidyltransferase superfamily enzymes as antibiotics” (priority 2017, dated 2025).
Values after ≈ are worked out from the molar mass of the structure shown. Where two headings read alike, the source gives them in different places.

How the values were obtained:
[1] = system: Coagulase negative Staphylococcus; assay: MIC80 on coagulase negative Staphylococcus; format: cell-based
Experimental: (§1) To further characterize the compounds, the minimal inhibitory concentration (MIC80) were determined for selected compounds. MIC80 is defined as the compound concentration at which ≥80% bacterial growth is inhibited compare to untreated controls. Meanwhile, for the selected compounds, cytotoxicity assays (CC50) were performed on a HepG2-derived hepatoblastoma cell line (HEPDES19). […] For the MIC80 measurements, a 1.5 fold dilution series of the compounds was prepared in Mueller-Hinton II broth. […] For CC50 evaluation, soluble tetrazolium dye (MTS) was used to measure mitochondrial toxicity in a human hepatoblastoma cell line (18). The bacteria (E. coli, S. saprophyticus and A. baumannii) used in MIC80 measurements were the same as that in the primary screening, but for Staphylococcus, S. aureus is used primarily because it is a common pathogen in Staphylococcaeae family, while S. saprophyticus is part of the normal human flora. S. aureus (ATCC 29213) is methicillin-sensitive Staphylococcus aureus (MSSA) strain and it was used as a model strain to measure the MIC80.
(§2) It was also tested whether compounds #63 and #285 can inhibit other coagulase-negative Staphylococcus (CNS) including S. epidermidis, S. hominis, etc. […] .

S. aureus (ATCC 29213) = assay: MIC80 on S. aureus; format: cell-based, Staphylococcus aureus; settings: Staphylococcus aureus, ATCC 29213 / MSSA, read-out: MIC80 S. aureus, S. aureus ATCC 29213 (MSSA); ≥80% growth inhibition
E. coli (ATCC 35218) = assay: microbe, parasite or virus in culture; format: cell-based; settings: Escherichia coli, ATCC35218, read-out: MIC80 E. coli, E. coli ATCC 35218
[2] = system: Acinetobacter baumannii (Abl, from a patient); assay: microbe, parasite or virus in culture; format: cell-based; settings: Acinetobacter baumannii, read-out: MIC80 A. baumannii, A. baumannii Ab1, MDR patient isolate
Staphylococcus hominis [3] = assay: MIC80 on S. hominis; format: cell-based
Experimental: as §1, §2

[4] = system: Staphylococcus epidermidis; assay: MIC80 on S. epidermidis; format: cell-based
Experimental: as §1, §2

[5] = system: S. aureus ATCC strains and methicillin-resistant Staphylococcus aureus (MRSA); assay: MIC80 on S. aureus ATCC strains and MRSA; format: cell-based
Experimental: (§3) To further characterize the compounds, the minimal inhibitory concentration (MIC80) were determined for selected compounds. MIC80 is defined as the compound concentration at which ≥80% bacterial growth is inhibited compare to untreated controls. Meanwhile, for the selected compounds, cytotoxicity assays (CC50) were performed on a HepG2-derived hepatoblastoma cell line (HEPDES19). […] For CC50 evaluation, soluble tetrazolium dye (MTS) was used to measure mitochondrial toxicity in a human hepatoblastoma cell line (18). The bacteria (E. coli, S. saprophyticus and A. baumannii) used in MIC80 measurements were the same as that in the primary screening, but for Staphylococcus, S. aureus is used primarily because it is a common pathogen in Staphylococcaeae family, while S. saprophyticus is part of the normal human flora.

[6] = system: S. aureus and/or S. saprophyticus; assay: MIC80 on S. aureus and/or S. saprophyticus; format: cell-based; settings: read-out: MIC80 against S. aureus and/or S. saprophyticus
Experimental: as §1

[7] = system: HepG2-derived hepatoblastoma cell line (HEPDES19); assay: Cytotoxicity assay (CC50), MTS; format: cell-based, human; settings: HEPDES19 cells
Experimental: as §3

[8] = Cytotoxicity assay (CC50), MTS; format: cell-based, human; settings: human, HepG2-derived hepatoblastoma cell line (HEPDES19), HEPDES19 cells
Experimental: as §3

[9] = system: Enterobacter cloacae complex; assay: Antibiotic susceptibility of Enterobacter cloacae complex strain; format: cell-based; settings: Ecc1 (Enterobacter cloacae complex)
Source text: (§4) All these MDR-bacteria are at least resistant to two classes of the antibiotics among five groups and/or specific antibiotics including quinolones/fluorquinolones, carbapenems, cephalosporins, aminoglycosides and piperacillin-tazobactam.

MDR E. coli = format: cell-based
Source text: as §4

[10] = system: MDR Acinetobacter baumannii; format: cell-based
Source text: as §4

Klebsiella pneumonia = assay: Antibiotic susceptibility of Klebsiella pneumonia strains; format: cell-based
Source text: as §4

[11] = system: Coagulase negative Staphylococcus; assay: Antibiotic susceptibility of coagulase negative Staphylococcus strains; format: cell-based
Morganella morganii = assay: Antibiotic susceptibility of Morganella morganii strain; format: cell-based; settings: Mm1 (Morganella morganii)
Source text: as §4

Citrobacter koseri = assay: Antibiotic susceptibility of Citrobacter koseri strain; format: cell-based; settings: Ck1 (Citrobacter koseri)
Source text: as §4

[12] = system: S. aureus ATCC strains and MRSA; format: cell-based, Staphylococcus aureus
Staphylococcus hominis [13] = format: cell-based
Experimental: (§5) It was also tested whether compounds #63 and #285 can inhibit other coagulase-negative Staphylococcus (CNS) including S. epidermidis, S. hominis, etc. […].

[14] = system: Staphylococcus epidermidis; format: cell-based
Experimental: as §5

[15] = CNS1 (Coagulase negative Staphylococcus)
[16] = CNS2 (Coagulase negative Staphylococcus)

## COc1ccccc1C(=O)Oc1cccccc1=O [Compound 285]
[1]; [15]
  MIC80: 9.9 µM (≈ 2.54 µg/mL)
[1]; [16]
  MIC80: 6.6 µM (≈ 1.69 µg/mL)
S. aureus (ATCC 29213)
  MIC80: 10.3 µM (≈ 2.64 µg/mL)
E. coli (ATCC 35218)
  MIC80: 100 µM (≈ 25.6 µg/mL)
[2]
  MIC80: 44.4 µM (≈ 11.4 µg/mL)
Staphylococcus hominis [3]; Sh1 (Staphylococcus hominis)
  MIC80: 9.9 µM (≈ 2.54 µg/mL)
Staphylococcus hominis [3]; Sh2 (Staphylococcus hominis)
  MIC80: 9.9 µM (≈ 2.54 µg/mL)
Staphylococcus hominis [3]; Sh3 (Staphylococcus hominis)
  MIC80: 6.6 µM (≈ 1.69 µg/mL)
[4]; Se1 (Staphylococcus epidermidis)
  MIC80: 8.8 µM (≈ 2.26 µg/mL)
[4]; Se2 (Staphylococcus epidermidis)
  MIC80: 6.6 µM (≈ 1.69 µg/mL)
[4]; Se3 (Staphylococcus epidermidis)
  MIC80: 6.6 µM (≈ 1.69 µg/mL)
[4]; Se4 (Staphylococcus epidermidis)
  MIC80: 9.9 µM (≈ 2.54 µg/mL)
[4]; Se5 (Staphylococcus epidermidis)
  MIC80: 9.9 µM (≈ 2.54 µg/mL)
[5]; ATCC 25923 / MRSA, S. aureus ATCC 25923
  MIC80: 8.8 µM (≈ 2.26 µg/mL)
[5]; ATCC 29213 / MRSA, S. aureus ATCC 29213 (Table 3)
  MIC80: 8.8 µM (≈ 2.26 µg/mL)
[5]; BAA-976 / MRSA, S. aureus ATCC BAA 976
  MIC80: 8.8 µM (≈ 2.26 µg/mL)
[5]; BAA-977 / MRSA, S. aureus ATCC BAA 977
  MIC80: 8.8 µM (≈ 2.26 µg/mL)
[5]; MRSA, Sa1 (MRSA)
  MIC80: 8.8 µM (≈ 2.26 µg/mL)
[5]; MRSA, Sa2 (MRSA)
  MIC80: 8.8 µM (≈ 2.26 µg/mL)
[5]; MRSA, Sa3 (MRSA)
  MIC80: 8.8 µM (≈ 2.26 µg/mL)
[5]; MRSA, Sa5 (MRSA)
  MIC80: 8.8 µM (≈ 2.26 µg/mL)
[5]; MRSA, Sa6 (MRSA)
  MIC80: 8.8 µM (≈ 2.26 µg/mL)
[5]; MRSA, Sa7 (MRSA)
  MIC80: 8.8 µM (≈ 2.26 µg/mL)
[5]; MRSA, Sa8 (MRSA)
  MIC80: 8.8 µM (≈ 2.26 µg/mL)
[5]; MRSA, Sa9 (MRSA)
  MIC80: 8.8 µM (≈ 2.26 µg/mL)
[5]; MRSA, Sa10 (MRSA)
  MIC80: 8.8 µM (≈ 2.26 µg/mL)
[5]; MRSA, Sa11 (MRSA)
  MIC80: 8.8 µM (≈ 2.26 µg/mL)
[5]; MRSA, Sa12 (MRSA)
  MIC80: 8.8 µM (≈ 2.26 µg/mL)
[5]; MRSA, Sa14 (MRSA)
  MIC80: 8.8 µM (≈ 2.26 µg/mL)
[5]; MRSA, Sa15 (MRSA)
  MIC80: 5.9 µM (≈ 1.51 µg/mL)
[5]; MRSA, Sa16 (MRSA)
  MIC80: 8.8 µM (≈ 2.26 µg/mL)
[5]; MRSA, Sa17 (MRSA)
  MIC80: 8.8 µM (≈ 2.26 µg/mL)
[5]; MRSA, Sa18 (MRSA)
  MIC80: 8.8 µM (≈ 2.26 µg/mL)
[5]; MRSA, Sa19 (MRSA)
  MIC80: 8.8 µM (≈ 2.26 µg/mL)
[5]; MRSA, Sa20 (MRSA)
  MIC80: 13.2 µM (≈ 3.38 µg/mL)
[5]; MRSA, Sa21 (MRSA)
  MIC80: 5.9 µM (≈ 1.51 µg/mL)
[5]; MRSA, Sa22 (MRSA)
  MIC80: 5.9 µM (≈ 1.51 µg/mL)
[5]; MRSA, Sa23 (MRSA)
  MIC80: 8.8 µM (≈ 2.26 µg/mL)
[6]
  MIC80: < 20 µM
[7]
  CC50: ≥ 100 µM
[8]
  CC50: > 50 µM

## Trimethoprim-Sulfamethoxazole [SXT]
[9]
  Antibiotic susceptibility: S
MDR E. coli; Ec1 (E. coli)
  Antibiotic susceptibility: R
MDR E. coli; Ec2 (E. coli)
  Antibiotic susceptibility: R
MDR E. coli; Ec3 (E. coli)
  Antibiotic susceptibility: R
MDR E. coli; Ec4 (E. coli)
  Antibiotic susceptibility: S
MDR E. coli; Ec5 (E. coli)
  Antibiotic susceptibility: R
[10]; Ab1 (Acinetobacter baumannii)
  Antibiotic susceptibility: R
[10]; Ab2 (Acinetobacter baumannii)
  Antibiotic susceptibility: R
[10]; Ab3 (Acinetobacter baumannii)
  Antibiotic susceptibility: R
[10]; Ab4 (Acinetobacter baumannii)
  Antibiotic susceptibility: R
[10]; Ab5 (Acinetobacter baumannii)
  Antibiotic susceptibility: R
Klebsiella pneumonia; Kp1 (Klebsiella pneumonia)
  Antibiotic susceptibility: R
Klebsiella pneumonia; Kp6 (Klebsiella pneumonia)
  Antibiotic susceptibility: R
[11]; [15]
  Antibiotic susceptibility: S
[11]; [16]
  Antibiotic susceptibility: S
Morganella morganii
  Antibiotic susceptibility: R
Citrobacter koseri
  Antibiotic susceptibility: R
[12]; S. aureus ATCC 25923
  Antibiotic susceptibility: S
[12]; S. aureus ATCC 29213
  Antibiotic susceptibility: S
[12]; S. aureus ATCC BAA 976
  Antibiotic susceptibility: S
[12]; S. aureus ATCC BAA 977
  Antibiotic susceptibility: S
[12]; S. aureus ATCC BAA 1026
  Antibiotic susceptibility: R
[12]; Sa1 (MRSA)
  Antibiotic susceptibility: R
[12]; Sa2 (MRSA)
  Antibiotic susceptibility: S
[12]; Sa3 (MRSA)
  Antibiotic susceptibility: S
[12]; Sa5 (MRSA)
  Antibiotic susceptibility: S
[12]; Sa6 (MRSA)
  Antibiotic susceptibility: S
[12]; Sa7 (MRSA)
  Antibiotic susceptibility: S
[12]; Sa8 (MRSA)
  Antibiotic susceptibility: S
[12]; Sa9 (MRSA)
  Antibiotic susceptibility: S
[12]; Sa10 (MRSA)
  Antibiotic susceptibility: S
[12]; Sa11 (MRSA)
  Antibiotic susceptibility: S
[12]; Sa12 (MRSA)
  Antibiotic susceptibility: S
[12]; Sa14 (MRSA)
  Antibiotic susceptibility: S
[12]; Sa15 (MRSA)
  Antibiotic susceptibility: R
[12]; Sa16 (MRSA)
  Antibiotic susceptibility: S
[12]; Sa17 (MRSA)
  Antibiotic susceptibility: S
[12]; Sa18 (MRSA)
  Antibiotic susceptibility: S
[12]; Sa19 (MRSA)
  Antibiotic susceptibility: S
[12]; Sa20 (MRSA)
  Antibiotic susceptibility: S
[12]; Sa21 (MRSA)
  Antibiotic susceptibility: S
[12]; Sa22 (MRSA)
  Antibiotic susceptibility: S
[12]; Sa23 (MRSA)
  Antibiotic susceptibility: S
[12]; number of resistant strains out of 21 MRSA strains
  MRSA strains resistant: 2/21
Staphylococcus hominis [13]
  Antibiotic susceptibility: R and S
[14]
  Antibiotic susceptibility: R
